Source: patent US7649008B2, “Crystal of benzimidazole derivative and process for producing the same” (priority 2003, dated 2010)
“Also recorded” adds a separate entry of the source.

How the values were obtained:
[1] = Relative stability of the crystal forms; type: physicochemical; conditions: four kinds of crystals excluding the solvate
[2] = Solubility of the crystal forms in the solvent; type: physicochemical; conditions: qualitative, solvent not given
[3] = Storage stability of the crystal forms; type: physicochemical; conditions: qualitative
[4] = Absorptivity of the crystal forms; conditions: qualitative

SMILES	stability (rank order of crystal forms) [1]	solubility in the solvent [2]	storage stability [3]	absorptivity [4]	solubility in the solvent ([2]; hydrate)
Cc1cccc2scc(Cn3c(SCCCC(=O)O)nc4ccccc43)c12 [crystal A, 4-(1-((4-methylbenzothiophen-3-yl)methyl)benzimidazol-2-ylthio)butanoic acid]	becomes lower in the order of crystal D, crystal B, crystal A and crystal E	becomes higher in this order; also recorded: excellent	excellent	comparatively excellent	–
Cc1cccc2scc(Cn3c(SCCCC(=O)O)nc4ccccc43)c12 [crystal B, 4-(1-((4-methylbenzothiophen-3-yl)methyl)benzimidazol-2-ylthio)butanoic acid]	becomes lower in the order of crystal D, crystal B, crystal A and crystal E	becomes higher in this order	excellent	–	–
Cc1cccc2scc(Cn3c(SCCCC(=O)O)nc4ccccc43)c12 [hydrate crystal, 4-(1-((4-methylbenzothiophen-3-yl)methyl)benzimidazol-2-ylthio)butanoic acid hydrate]	–	–	excellent	comparatively excellent	excellent
Cc1cccc2scc(Cn3c(SCCCC(=O)O)nc4ccccc43)c12 [crystal E, 4-(1-((4-methylbenzothiophen-3-yl)methyl)benzimidazol-2-ylthio)butanoic acid]	becomes lower in the order of crystal D, crystal B, crystal A and crystal E	becomes higher in this order; also recorded: excellent	excellent	comparatively excellent	–
Cc1cccc2scc(Cn3c(SCCCC(=O)O)nc4ccccc43)c12 [crystal D, 4-(1-((4-methylbenzothiophen-3-yl)methyl)benzimidazol-2-ylthio)butanoic acid]	becomes lower in the order of crystal D, crystal B, crystal A and crystal E	becomes higher in this order; also recorded: drastically poor	excellent	–	–
